Experimental data taken from patent US20210169854A1, “3'-[(2Z)-[1-(3,4-dimethylphenyl)-1,5-dihydro-3-methyl-5-oxo-4H-pyrazol-4-ylidene]hydrazino]-2'-hydroxy-[1,1'-biphenyl]-3-carboxylic acid and its salts formulation” (NOVARTIS AG, priority 2019, published 2021).
Read-outs that look alike come from different tables or passages of the source.

Assays:
[1] = cited from earlier work
[2] = Solubility and permeability of eltrombopag (general statements, data not shown); type: physicochemical; details: even in the form of bis-monoethanolamine salt
[3] = standard high-fat breakfast; cited from earlier work
[4] = cited from earlier work; remark: listed apart in the source
[5] = cited from earlier work; remark: listed apart in the source
[6] = single 25-mg dose for oral suspension 2 hours after the high-calcium meal
[7] = single 25-mg dose for oral suspension 2 hours before the high-calcium meal
[8] = single 25-mg dose for oral suspension with a high-calcium, moderate-fat, moderate-calorie meal

Row | solubility in water and in a number of liquid/semisolid surfactants [2] | Structure (SMILES) | solubility (BCS context) [1] | decrease of plasma eltrombopag AUCO-∞ [3] | decrease of plasma eltrombopag Cmax [3] | reduction of plasma eltrombopag AUCO-∞ [4, 6] | reduction of plasma eltrombopag Cmax [4, 6] | reduction of plasma eltrombopag AUCO-∞ [4, 7] | reduction of plasma eltrombopag Cmax [4, 7] | reduction of plasma eltrombopag AUCO-∞ [4, 8] | reduction of plasma eltrombopag Cmax [4, 8] | AUC elevation compared with the fasted state ([5]; after a high fat meal) | Cmax elevation compared with the fasted state ([5]; after a high fat meal) | AUC elevated compared with the fasted state ([5]; after a low fat meal) | Cmax elevated compared with the fasted state ([5]; after a low fat meal)
1 | low solubility | CC1=NN(c2ccc(C)c(C)c2)C(=O)/C1=N\Nc1cccc(-c2cccc(C(=O)O)c2)c1O [eltrombopag, 3′-[(2Z)-[1-(3,4-dimethylphenyl)-1,5-dihydro-3-methyl-5-oxo-4H-pyrazol-4-ylidene]hydrazino]-2′-hydroxy-[1,1′-biphenyl]-3-carboxylic acid] | low soluble | approximately 59% | 65% | 47% | 48% | 20% | 14% | 75% | 79% | – | – | – | –
2 | – | C[C@]12CC[C@H](O)CC1=CC[C@@H]1[C@@H]2CC[C@]2(C)C(c3cccnc3)=CC[C@@H]12 [abiraterone] | – | – | – | – | – | – | – | – | – | 10 fold | 17 fold | 5 fold | 7 fold
